In paper PMC4503722, “Novel Phenotypic Outcomes Identified for a Public Collection of Approved Drugs from a Publicly Accessible Panel of Assays” (PLoS ONE, 2015):
Where two headings read alike, the source gives them in different places.

Experiments:
SNU-C1 = assay: cells; format: cell-based; settings: for IC50: read-out: Basal_Viability ATP SNU-C1 summarized IC50
SW480 = assay: cells; format: cell-based; settings: for IC50: read-out: Basal_Viability ATP SW480 summarized IC50
[1] = system: HCT116 cells treated with a GSK3β inhibitor; assay: cells; format: cell-based; settings: for IC50: read-out: GSK3b inh pretreated_Viability ATP HCT116 summarized IC50
DLD-1 = assay: cells; format: cell-based; settings: for IC50: read-out: Basal_Viability ATP DLD-1 summarized IC50
Colo320 = assay: cells; format: cell-based; settings: for IC50: read-out: Basal_Viability ATP Colo 320 summarized IC50
HCT116 = assay: cells; format: cell-based
RKO = assay: cells; format: cell-based; settings: for IC50: read-out: Basal_Viability ATP RKO summarized IC50
HeLa cells = assay: cells; format: cell-based;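 as to Hela CellCycMod PI 4N summarized IC50: value tracks stimulation of 4N DNA content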
[2] = system: ECFC/ADSC co-culture cell nuclei number; settings: for IC50: read-out: VEGF_ADSC\ECFC Angio Hoechst NucArea summarized IC50
[3] = system: endothelial tube formation in co-cultures of ECFCs and ADSCs treated with VEGF; assay: cells; format: cell-based, human; settings: for IC50: read-out: VEGF_ADSC\ECFC Angio CD31 TubeArea summarized IC50
[4] = assay number 14, 2N, read-out: Hela CellCycMod PI 2N summarized IC50
[5] = assay number 15, S phase, read-out: Hela CellCycMod PI S Phase summarized IC50
[6] = assay number 16, 4N, read-out: Hela CellCycMod PI 4N summarized IC50
[7] = assay number 17, MI, read-out: Hela CellCycMod PI MI summarized IC50
[8] = assay number 18, cell number, read-out: Hela CellCycMod PI Cell Number summarized IC50

Compound	VEGF_ADSC\ECFC Angio Hoechst NucArea IC50/EC50 [2] [µM]	VEGF_ADSC\ECFC Angio CD31 TubeArea IC50/EC50 [3] [µM]	Hela CellCycMod PI 2N IC50/EC50 (HeLa cells; assay number 14, 2N) [µM]	Hela CellCycMod PI S Phase IC50/EC50 (HeLa cells; assay number 15, S phase) [µM]	Hela CellCycMod PI 4N IC50/EC50 (HeLa cells; assay number 16, 4N) [µM]	Hela CellCycMod PI MI IC50/EC50 (HeLa cells; assay number 17, MI) [µM]	Hela CellCycMod PI Cell Number IC50/EC50 (HeLa cells; assay number 18, cell number) [µM]	also measured
C=C(CC)C(=O)c1ccc(OCC(=O)O)c(Cl)c1Cl [NCGC00016260-13]								IC50 (SNU-C1): > 20 µM; IC50 (SW480): > 6.67 µM; IC50 [1]: 12.2 µM; IC50 (DLD-1): 11.9 µM; IC50 (Colo320): > 20 µM; IC50 (HCT116; read-out: Basal_Viability ATP HCT116 summarized IC50): > 20 µM; IC50 (RKO): > 6.67 µM
CN(Cc1cnc2nc(N)nc(N)c2n1)c1ccc(C(=O)N[C@@H](CCC(=O)O)C(=O)O)cc1 [NCGC00025060-15]								IC50 (SNU-C1; assay number 30, basal): > 20 µM; IC50 (HeLa cells; [4]): > 10 µM; IC50 (HeLa cells; [5]): > 10 µM; IC50 (HeLa cells; [6]): > 10 µM; IC50 (HeLa cells; [7]): > 10 µM; IC50 (HeLa cells; [8]): > 10 µM; IC50 [2]: > 10 µM; IC50 [3]: > 10 µM
O=C(OCc1ccccc1)c1cccnc1 [NCGC00166105-04]	> 10	> 10						Basal_Viability ATP SNU-C1 IC50/EC50 (SNU-C1; assay number 30, concentration response): > 20 µM; GSK3b inh pretreated_Viability ATP HCT116 IC50/EC50 ([1]; assay number 26, GSK3b inhibitor pretreated, concentration response): > 20 µM; Basal_Viability ATP DLD-1 IC50/EC50 (DLD-1; assay number 23, concentration response): > 20 µM; Basal_Viability ATP Colo 320 IC50/EC50 (Colo320; assay number 27, concentration response): > 20 µM; Basal_Viability ATP HCT116 IC50/EC50 (HCT116; assay number 25, basal, concentration response): > 20 µM; Basal_Viability ATP RKO IC50/EC50 (RKO; assay number 29, concentration response): > 20 µM
CCOP(=S)(OCC)SCSc1ccc(Cl)cc1 [NCGC00166170-02]								IC50 (SNU-C1; assay number 30, basal): > 20 µM; IC50 (SW480; assay number 24, basal): > 20 µM; IC50 ([1]; assay number 26, GSK3b inhibitor pretreated): > 20 µM; IC50 (DLD-1; assay number 23, basal): > 20 µM; IC50 (Colo320; assay number 27, basal): > 20 µM; IC50 (RKO; assay number 29, basal): > 20 µM; IC50 [2]: > 10 µM; IC50 [3]: > 10 µM
CCCCCCC[N+](CC)(CC)CCCCc1ccc(Cl)cc1.Cc1ccc(S(=O)(=O)[O-])cc1 [NCGC00168464-04]								IC50/EC50, Hela CellCycMod PI 2N (assay number 14) (HeLa cells; 2N): > 10 µM; IC50/EC50, Hela CellCycMod PI 4N (assay number 16) (HeLa cells; 4N): > 10 µM; IC50/EC50, Hela CellCycMod PI Cell Number (assay number 18) (HeLa cells): > 10 µM; IC50/EC50, Hela CellCycMod PI MI (assay number 17) (HeLa cells; MI): > 10 µM; IC50/EC50, VEGF_ADSC\ECFC Angio Hoechst NucArea (assay number 3) [2]: > 10 µM; IC50/EC50, VEGF_ADSC\ECFC Angio CD31 TubeArea (assay number 2) [3]: 6.3375 µM
CC(=O)N(O)CCCCCNC(=O)CCC(=O)N(O)CCCCCNC(=O)CCC(=O)N(O)CCCCCN [NCGC00178802-06]								IC50/EC50, Hela CellCycMod PI 2N (assay number 14) (HeLa cells; 2N): > 10 µM; IC50/EC50, Hela CellCycMod PI 4N (assay number 16) (HeLa cells; 4N): > 10 µM; IC50/EC50, Hela CellCycMod PI Cell Number (assay number 18) (HeLa cells): > 10 µM; IC50/EC50, Hela CellCycMod PI MI (assay number 17) (HeLa cells; MI): > 10 µM; IC50/EC50, Hela CellCycMod PI S Phase (assay number 15) (HeLa cells; S Phase): > 10 µM; IC50/EC50, VEGF_ADSC\ECFC Angio Hoechst NucArea (assay number 3) [2]: > 10 µM; IC50/EC50, VEGF_ADSC\ECFC Angio CD31 TubeArea (assay number 2) [3]: 4.5338 µM
C[C@@H]1C[C@H]2[C@@H]3CCC4=CC(=O)C=C[C@]4(C)[C@@]3(Cl)[C@@H](O)C[C@]2(C)[C@@]1(OC(=O)c1ccco1)C(=O)CCl [NCGC00179578-03]	> 10	4.9886	> 10	> 10	> 10	> 10		
O=c1[nH]c(=O)n([C@H]2C[C@H](O)[C@@H](CO)O2)cc1I [NCGC00179673-03]								IC50 (HeLa cells; [4]): > 10 µM; IC50 (HeLa cells; [5]): > 10 µM; IC50 (HeLa cells; [6]): > 10 µM; IC50 (HeLa cells; [7]): > 10 µM; IC50 (HeLa cells; [8]): > 10 µM; IC50 [2]: > 10 µM; IC50 [3]: 0.681 µM
Clc1ccc(Nc2nnc(Cc3ccncc3)c3ccccc23)cc1 [NCGC00181350-03]	> 10	0.1109	> 10	> 10	> 10	> 10	> 10	
Nc1nc(F)nc2c1ncn2[C@@H]1O[C@H](CO)[C@@H](O)[C@@H]1O [NCGC00182047-03]	> 10	8.4496	> 10	> 10	> 10	> 10	> 10	
CC(=O)Nc1ccn(C2COC(COC(=O)c3ccccc3)O2)c(=O)n1 (stereo not drawn) [NCGC00183850-01]	> 10	2.3271	> 10	0.312	> 10	> 10	0.2813	
CC(C)OC(=O)OCOP(=O)(CO[C@H](C)Cn1cnc2c(N)ncnc21)OCOC(=O)OC(C)C.O=C(O)/C=C/C(=O)O [NCGC00183876-03]	> 10	3.8408	> 10		> 10	> 10	0.2888	
Cc1ccc(Nc2nccc(N(C)c3ccc4c(C)n(C)nc4c3)n2)cc1S(N)(=O)=O [NCGC00188865-03]	> 10	0.0465	> 10	> 10	> 10	> 10	> 10	
c1cnc2cc3c(cc2n1)C1CNCC3C1 [NCGC00247735-02]								Basal_Viability ATP SW480 IC50/EC50 (SW480; assay number 24, basal): > 6.6667 µM; Basal_Viability ATP DLD-1 IC50/EC50 (DLD-1; assay number 23, basal): > 6.6667 µM; Basal_Viability ATP Colo 320 IC50/EC50 (Colo320; assay number 27, basal): > 20 µM; Basal_Viability ATP HCT116 IC50/EC50 (HCT116; assay number 25, basal): > 20 µM
COc1ccc(-n2nc(CCC(=O)N(C)O)cc2-c2ccc(Cl)cc2)cc1 [NCGC00253573-01]								Basal_Viability ATP SNU-C1 IC50/EC50 (SNU-C1): 1.7479 µM; Basal_Viability ATP SW480 IC50/EC50 (SW480): 2.8124 µM; Basal_Viability ATP DLD-1 IC50/EC50 (DLD-1): 2.0757 µM; Basal_Viability ATP Colo 320 IC50/EC50 (Colo320): 0.6615 µM; Basal_Viability ATP HCT116 IC50/EC50 (HCT116): 6.5453 µM; Basal_Viability ATP RKO IC50/EC50 (RKO): 4.1076 µM
CC(C)=CCC/C(C)=C/CC/C(C)=C/C(=O)OCC(=O)[C@@]1(O)CC[C@H]2[C@@H]3CCC4=CC(=O)C=C[C@]4(C)[C@H]3[C@@H](O)C[C@@]21C [NCGC00261967-01]	> 10	3.3384	> 10	> 10	> 10	> 10	0.05952	
CCCCCCCCCCCCCCCCNc1ccc(C(=O)O)cc1 [NCGC00261985-01]	> 10	0.3673	> 10		> 10	> 10	> 10	
Nc1nc(=O)n([C@@H]2O[C@H](CO)[C@@H](O)[C@@H]2F)cc1I [NCGC00262963-01]	> 10	3.4717	> 10	> 10	> 10	> 10	8.504	
CO[C@@H]1[C@@H](OC)[C@H](C)[C@@](O)(CC(=O)O)O[C@H]1[C@H](C)[C@H]1O[C@@]2(CC[C@@](C)([C@H]3CC[C@@](C)([C@@H]4O[C@@H]([C@H]5O[C@](C)(O)[C@H](C)C[C@@H]5C)C[C@@H]4OC4C[C@H](OC)[C@@H](OC)[C@H](C)O4)O3)O2)C[C@H](O)[C@H]1C.N (stereo partly drawn) [NCGC00263563-01]	2.568	0.2517	> 10	> 10	> 10	> 10	2.751	
NCCNc1ccc(NCCN)c2c1C(=O)c1ccncc1C2=O [NCGC00274280-01]	> 10	0.0465	0.042		0.04829	> 10	0.04206	
CCCCCCCCCCCCCCCC[N+](C)(C)Cc1ccccc1.[Cl-] [NCGC00344524-01]	> 10	2.5333	> 10	> 10	> 10	> 10	> 10	
